{"source": "patent US6858630B2", "about": "“Naphthimidazole derivatives and their use as thrombopoietin mimetics” (SmithKline Beecham Corporation, priority 1999, dated 2005)", "biological_target": "T1, TPO receptor (Homo sapiens, UniProt P40238)", "T1 construct": "expressed in transfected cells; host or cells: murine BaF3 cells", "T1 sequence (P40238 26-635)": "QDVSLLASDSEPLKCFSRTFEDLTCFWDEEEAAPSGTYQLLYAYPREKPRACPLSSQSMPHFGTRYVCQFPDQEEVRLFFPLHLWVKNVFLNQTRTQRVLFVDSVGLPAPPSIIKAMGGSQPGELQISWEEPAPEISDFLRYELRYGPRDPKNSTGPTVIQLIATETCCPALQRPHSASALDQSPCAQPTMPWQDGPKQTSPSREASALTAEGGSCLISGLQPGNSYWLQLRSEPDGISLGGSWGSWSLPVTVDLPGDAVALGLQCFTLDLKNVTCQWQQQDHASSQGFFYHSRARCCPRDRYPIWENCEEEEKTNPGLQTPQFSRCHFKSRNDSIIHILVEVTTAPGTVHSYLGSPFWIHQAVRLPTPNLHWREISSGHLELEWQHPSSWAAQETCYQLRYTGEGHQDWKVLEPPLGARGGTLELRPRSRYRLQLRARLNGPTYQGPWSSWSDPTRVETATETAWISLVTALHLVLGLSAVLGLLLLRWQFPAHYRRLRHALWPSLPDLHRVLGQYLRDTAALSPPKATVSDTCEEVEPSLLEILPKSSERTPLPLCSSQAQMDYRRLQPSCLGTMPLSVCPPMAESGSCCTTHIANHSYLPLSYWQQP", "assay": "Luciferase assay (TPO-responsive BaF3 cell line)", "type": "cell-based, murine", "conditions": "at a concentration of 2 uM; control is the maximal response to TPO", "protocol": "Compounds of the present invention were tested for potency as mimetics of the TPO receptor in a Luciferase assay such as described in Lamb, et al., Nucleic Acids Research 23; 3283-3289 (1995) and Seidel, et al., Proc. Natl. Acad. Sci., USA 92: 3041-3045 (1995) by substituting a TPO-responsive BaF3 cell line (Vigon et al. Proc. Natl. Acad. Sci. USA 1992, 89, 5640-5644) for the HepG2 cells utilized therein. The murine BaF3 cells express TPO receptors and closely match the pattern of STAT (signal transducers and activators of transcription) activation observed in primary murine and human bone marrow cells."}
{"molecule": "COc1c(-c2ccc(C)cc2)cccc1-c1nc2c(ccc3cc(S(=O)(=O)O)cc(O)c32)[nH]1.Cl", "note": "[Compound 14, 2-(3-[4′-Methylphenyl]-2-methoxyphenyl)-9-hydroxy-naphth[1,2-d]imidazole-7-sulfonic acid hydrochloride]", "values": [{"measurement": "activation, % of control in the luciferase assay", "result": "about 25%"}]}
